This passage reports EC50 results from BindingDB's records for doi:10.1021/acs.jmedchem.6b00108 (University of Montreal, 2016).

Broadly, the EC50 is the concentration at which the effect is half-maximal.

Where a SMILES comes first, the peptide text is derived from it.

The nature of assay [1]: Antagonist activity at UT2 receptor in Sprague-Dawley rat thoracic aorta ring assessed as pEC50 for URP -induced aortic contractions at 10^-5M relative to KCl.
The nature of assay [2]: Antagonist activity at UT2 receptor in Sprague-Dawley rat thoracic aorta ring assessed as pEC50 for hU2-induced aortic contractions at 10^-5M relative to KCl.

For `CC(C)[C@H](NC(=O)[C@@H]1CSSC[C@H](NC(=O)[C@@H](N)CC(=O)O)C(=O)N[C@@H](Cc2ccccc2)C(=O)NN(Cc2cccc3ccccc23)S(=O)(=O)N[C@@H](CCCCN)C(=O)N[C@@H](Cc2ccc(O)cc2)C(=O)N1)C(=O)O`, the EC50 in assay [1] amounted to 7.9 nM; in assay [2], 5 nM.
Taken in the same sequence, the figures for `CC(C)[C@H](NC(=O)[C@@H]1CSSC[C@H](NC(=O)[C@@H](N)CC(=O)O)C(=O)N[C@@H](Cc2ccccc2)C(=O)NN(Cc2ccc3ccccc3c2)S(=O)(=O)N[C@@H](CCCCN)C(=O)N[C@@H](Cc2ccc(O)cc2)C(=O)N1)C(=O)O` were 9.5 nM and 15 nM.
Taken in the same sequence, the figures for `CC(C)[C@H](NC(=O)[C@@H]1CSSC[C@H](NC(=O)[C@@H](N)CC(=O)O)C(=O)N[C@@H](Cc2ccccc2)C(=O)N[C@@H](Cc2c[nH]c3ccccc23)C(=O)NN(CCCCN(C)C)S(=O)(=O)N[C@@H](Cc2ccc(O)cc2)C(=O)N1)C(=O)O` (HELM PEPTIDE1{D.C.F.W.[CN(C)CCCCN(N[*:1])S(=O)(=O)N[C@@H](Cc1ccc(O)cc1)C(=O)[*:2]].C.V}$PEPTIDE1,PEPTIDE1,2:R3-6:R3$$$V2.0) were 3.7 nM and 1.6 nM.
Taken in the same sequence, the figures for `CC(C)[C@H](NC(=O)[C@@H]1CSSC[C@H](NC(=O)[C@@H](N)CC(=O)O)C(=O)N[C@@H](Cc2ccccc2)C(=O)NN(Cc2ccccc2)S(=O)(=O)N[C@@H](CCCCN)C(=O)N[C@@H](Cc2ccc(O)cc2)C(=O)N1)C(=O)O` (HELM PEPTIDE1{D.C.F.[NCCCC[C@H](NS(=O)(=O)N(Cc1ccccc1)N[*:1])C(=O)[*:2]].Y.C.V}$PEPTIDE1,PEPTIDE1,2:R3-6:R3$$$V2.0) were 3.5 nM and 4.8 nM.
